Reference: US20230392126A1, “TISSUE ORGANOIDS” (priority 2016, published 2023)

Experiments:
mouse epidermal cells = experiment: Secretion of GLP1 in cell culture medium by ELISA (mouse epidermal cells); assay type: cell-based
[1] = tested on: mouse epidermal stem cells; experiment: Cell proliferation and differentiation of engineered mouse epidermal cells in vitro (cell cycle FACS, calcium shift western blot); assay type: cell-based
Procedure: Primary human neonatal epidermal keratinocytes were obtained from Thermo Fischer® (C0015C), and cultured with Epilife® medium (Thermo Fischer, M-EPICF-500) with manufacturer's recommended procedures. Calcium shift was performed to induce differentiation of primary keratinocytes by increasing the calcium concentration in culture media to 1.5 mM.
Propidium iodide (PI) staining followed by flow cytometry were used to determine the effect of cell cycle profiles. Mouse and human epidermal cells were cultured in two 6 cm cell culture dish for 24 hours, respectively. Cells were trypsinized, and 1×10^5 cells from each dish were collected, followed by one PBS wash. […] After staining, the cells were analyzed immediately using flow cytometer BD FACSCanto™ II (BD Biosciences, San Jose, CA) with an excitation wavelength at 488 nm and emission at 585 nm. DNA content and histograms of cell cycle distribution were analyzed using FlowJo™ software, version 10 (FLOWJO LLC, OR).
Western blotting was performed as described previously (Blanpain et al.). […] Visualization and quantification was carried out with the LI-COR Odyssey® scanner and software (LI-COR Biosciences).
Propidium iodide (PI) staining followed by flow cytometry were used to determine the effect of cell cycle profiles. […] DNA content and histograms of cell cycle distribution were analyzed using FlowJo™ software, version 10 (FLOWJO LLC, OR). […]

[2] = Intraperitoneal insulin tolerance test (ITT) in grafted mice; assay type: in vivo, mouse; settings: vs control mice or GLP1 mice without doxycycline
Procedure: For glucose and insulin tolerance tests, an intraperitoneal glucose tolerance test (IPGTT) was performed on mice fed an HFD for 10 weeks. Mice were fasted for 6 h before the test. Animals were injected (1 g/kg glucose/body weight, i.p.) with glucose dissolved in saline, and blood glucose was measured at 0, 30, 60 and 90 min using glucose test strips and glucose meters. An intraperitoneal insulin tolerance test was carried out 1 week after IPGTT. Mice were fasted for 4 h and injected (2 U/kg, i.p.) with insulin purchased from Sigma (St. Louis, MO). Blood glucose levels were determined thereafter at 0, 30, 60 and 90 min.
To examine glucose homeostasis, IPGTT (intraperitoneal glucose tolerance test) and ITT (insulin tolerance test) were performed.

[3] = GLP1 level in blood by ELISA, nude mice grafted with human skin organoids; assay type: in vivo, mouse; settings: human GLP1-expressing grafts, doxycycline food
Excerpt: The engineered cells stratified and formed skin organoids in vitro, which were transplanted to nude hosts (FIG. 13G-H).

GLP1
GLP1 production and secretion (mouse epidermal cells; GLP1/GGBP expression cassette, constitutive): robust GLP1 production and secretion | GLP1 production (mouse epidermal cells; tetracycline-inducible cassette, doxycycline stimulation): robust GLP1 production upon stimulation with doxycycline in a dose-dependent manner | effect of expression on cell proliferation / differentiation in vitro [1]: did not significantly change cell proliferation | insulin resistance [2]: significantly reduced insulin resistance | GLP1 in the blood [3]: significant secretion of GLP1 was detected in the blood
